Where two headings read alike, the source gives them in different places. Numbered stars: 1 amine (or outer) side, 2 acyl side, 3 side chain; on linkers, the order of the positions; unused ones are H or OH. Square brackets hold non-standard residues; d marks the D form. Peptide text beside a SMILES is read from it. * marks the point of attachment. X3 = NC[C@H](OC(=O)C(F)(F)F)[C@H](N[*:1])C(=O)[*:2]; Phe(3-CONH2) = NC(=O)c1cccc(C[C@H](N)C(=O)O)c1; X1 = O=C([C@H](Cc1cc(F)c(F)cc1F)N[*:1])[*:2]; Phe(4-CN) = N#Cc1ccc(C[C@H](N)C(=O)O)cc1; Dab(3S-OH) = NC[C@H](O)[C@H](N)C(=O)O; ΔZArg = N=C(N)NCC/C=C(\N)C(=O)O; aThr = C[C@H](O)[C@H](N)C(=O)O; dOrn = NCCC[C@@H](N)C(=O)O; Abu = CC[C@H](N)C(=O)O; NH(CH2)4NH2 = NCCCCN*
How the values were obtained:
[1] = system: Acinetobacter baumannii ATCC 19606; assay: MIC, broth microdilution (CLSI), reference strain; details: CAMHB
[2] = system: Ec #2 (MIN); assay: MIC / resistance profile, multidrug-resistant strain; details: multidrug-resistant E. coli MIN
[3] = system: Ec #5 (DSM22315); assay: as above; details: multidrug-resistant E. coli DSM22315
[4] = system: Ec #4 (GUE); assay: as above; details: multidrug-resistant E. coli GUE
[5] = system: Pseudomonas aeruginosa ATCC 27853; assay: MIC, broth microdilution (CLSI), reference strain; details: CAMHB
[6] = system: Ec #3 (EGB957); assay: MIC / resistance profile, multidrug-resistant strain; details: multidrug-resistant E. coli EGB957
[7] = system: Staphylococcus aureus ATCC 13709; assay: MIC, broth microdilution (CLSI), reference strain; details: CAMHB
[8] = system: Escherichia coli ATCC 25922; assay: MIC, broth microdilution (CLSI), reference strain; details: CAMHB
[9] = system: Ec #1 (NCTC13476); assay: MIC / resistance profile, multidrug-resistant strain; details: multidrug-resistant E. coli NCTC13476
[10] = target: N-type calcium channels (Cav2.2) (Rattus norvegicus (Rat), UniProt Q02294); assay: biochemical; format: binding
[11] = class symbol, rat cerebral cortex, [125I]ω-conotoxin GVIA 0.001 nM, 30 minutes at room temperature, read-out: IC50 Cav2.2

Compound	Ab: MIC Acinetobacter baumannii ATCC 19606 [1]	MIC Ec#2 [2]	MIC Ec#5 [3]	MIC Ec#4 [4]	Pa: MIC Pseudomonas aeruginosa ATCC 27853 [5]	MIC Ec#3 [6]	Sa: MIC Staphylococcus aureus ATCC 13709 [7]	Ec: MIC Escherichia coli ATCC 25922 [8]	MIC Ec#1 [9]	IC50 [10, 11] [nM]	IC50 [10] [nM]	IC50 ([10]; value in brackets, rat cerebral cortex, [125I]ω-conotoxin GVIA 0.001 nM, read-out: IC50 Cav2.2) [nM]
C[C@H](NC(=O)[C@@H](NC(=O)[C@@H](N)CCCCN)[C@@H](O)CN)C(=O)NCC(=O)N[C@H](CCCN)C(=O)N1CCC[C@H]1C(=O)N[C@@H](Cc1cc(F)c(F)cc1F)C(=O)N[C@@H](CCCCN)C(=O)N/C(=C\CCNC(=N)N)C(=O)O [24.77] (H-K[Dab(3S-OH)]AG[dOrn]P[X1]K[ΔZArg]-OH)	− (>32 μg/mL)	+ (≤32 μg/mL)	+ (≤32 μg/mL)	+ (≤32 μg/mL)	− (>32 μg/mL)	++ (≤8 μg/mL)	++ (≤8 μg/mL)	++ (≤8 μg/mL)	+ (≤32 μg/mL)	–	–	–
C[C@H](NC(=O)[C@@H](NC(=O)[C@@H](N)CCCCN)[C@@H](O)CN)C(=O)NCC(=O)N[C@H](CCCN)C(=O)N1CCC[C@H]1C(=O)N[C@@H](Cc1cccc(C(N)=O)c1)C(=O)N[C@@H](CCCCN)C(=O)N/C(=C\CCNC(=N)N)C(=O)O [24.90] (H-K[Dab(3S-OH)]AG[dOrn]P[Phe(3-CONH2)]K[ΔZArg]-OH)	− (>32 μg/mL)	++ (≤8 μg/mL)	++ (≤8 μg/mL)	++ (≤8 μg/mL)	− (>32 μg/mL)	++ (≤8 μg/mL)	++ (≤8 μg/mL)	++ (≤8 μg/mL)	++ (≤8 μg/mL)	–	–	–
C[C@H](NC(=O)[C@@H](NC(=O)[C@@H](N)CCCCN)[C@@H](O)CN)C(=O)NCC(=O)N[C@H](CCCN)C(=O)N1CCC[C@H]1C(=O)N[C@@H](Cc1ccc(C#N)cc1)C(=O)N[C@@H](CCCCN)C(=O)N/C(=C\CCNC(=N)N)C(=O)O [24.100] (H-K[Dab(3S-OH)]AG[dOrn]P[Phe(4-CN)]K[ΔZArg]-OH)	− (>32 μg/mL)	++ (≤8 μg/mL)	+ (≤32 μg/mL)	++ (≤8 μg/mL)	− (>32 μg/mL)	++ (≤8 μg/mL)	++ (≤8 μg/mL)	++ (≤8 μg/mL)	++ (≤8 μg/mL)	–	–	–
C[C@H](NC(=O)[C@@H](NC(=O)[C@@H](N)CCCCN)[C@@H](O)CN)C(=O)NCC(=O)N[C@H](CCCN)C(=O)N1CCC[C@H]1C(=O)N[C@@H](Cc1ccc(O)cc1)C(=O)N[C@@H](CCCCN)C(=O)N/C(=C\CCNC(=N)N)C(=O)O [24.138] (H-K[Dab(3S-OH)]AG[dOrn]PYK[ΔZArg]-OH)	− (>32 μg/mL)	–	–	–	− (>32 μg/mL)	–	+ (≤32 μg/mL)	+ (≤32 μg/mL)	–	> 300	–	–
C[C@H](NC(=O)[C@@H](NC(=O)[C@@H](N)CCCCN)[C@@H](O)CN)C(=O)NCC(=O)N[C@H](CCCN)C(=O)N1CCC[C@H]1C(=O)N[C@@H](Cc1c[nH]c2ccccc12)C(=O)N[C@@H](CCCCN)C(=O)N/C(=C\CCNC(=N)N)C(=O)O [24.156] (H-K[Dab(3S-OH)]AG[dOrn]PWK[ΔZArg]-OH)	− (>32 μg/mL)	++ (≤8 μg/mL)	++ (≤8 μg/mL)	++ (≤8 μg/mL)	− (>32 μg/mL)	++ (≤8 μg/mL)	++ (≤8 μg/mL)	++ (≤8 μg/mL)	+ (≤32 μg/mL)	–	–	–
C[C@H](O)[C@H](NC(=O)[C@@H](NC(=O)[C@@H](N)CCCCN)[C@@H](O)CN)C(=O)NCC(=O)N[C@H](CCCN)C(=O)N1CCC[C@H]1C(=O)N[C@@H](Cc1cnc[nH]1)C(=O)N[C@@H](CCCCN)C(=O)N/C(=C\CCNC(=N)N)C(=O)N[C@@H](CCCCN)C(=O)NCCCCN [25.1] (H-K[Dab(3S-OH)][aThr]G[dOrn]PHK[ΔZArg]K-{NH(CH2)4NH2})	− (>32 μg/mL)	–	–	–	+ (≤32 μg/mL)	–	++ (≤8 μg/mL)	++ (≤8 μg/mL)	–	–	< 30	3
C[C@H](O)[C@H](NC(=O)[C@@H](NC(=O)[C@@H](N)CCCCN)[C@@H](O)CN)C(=O)NCC(=O)N[C@H](CCCN)C(=O)N1CCC[C@H]1C(=O)N[C@@H](Cc1cnc[nH]1)C(=O)N[C@@H](CCCCN)C(=O)N/C(=C\CCNC(=N)N)C(=O)O [25.2] (H-K[Dab(3S-OH)][aThr]G[dOrn]PHK[ΔZArg]-OH)	− (>32 μg/mL)	–	–	–	− (>32 μg/mL)	–	− (>32 μg/mL)	− (>32 μg/mL)	–	> 300	–	–
CC[C@H](C)[C@H](NC(=O)[C@@H](NC(=O)[C@@H](N)CCCCN)[C@@H](O)CN)C(=O)NCC(=O)N[C@H](CCCN)C(=O)N1CCC[C@H]1C(=O)N[C@@H](Cc1cnc[nH]1)C(=O)N[C@@H](CCCCN)C(=O)N/C(=C\CCNC(=N)N)C(=O)N[C@@H](CCCCN)C(=O)NCCCCN [27.1] (H-K[Dab(3S-OH)]IG[dOrn]PHK[ΔZArg]K-{NH(CH2)4NH2})	− (>32 μg/mL)	–	–	–	− (>32 μg/mL)	–	++ (≤8 μg/mL)	++ (≤8 μg/mL)	–	< 30	–	–
CC[C@H](C)[C@H](NC(=O)[C@@H](NC(=O)[C@@H](N)CCCCN)[C@@H](O)CN)C(=O)NCC(=O)N[C@H](CCCN)C(=O)N1CCC[C@H]1C(=O)N[C@@H](Cc1cnc[nH]1)C(=O)N[C@@H](CCCCN)C(=O)N/C(=C\CCNC(=N)N)C(=O)O [27.2] (H-K[Dab(3S-OH)]IG[dOrn]PHK[ΔZArg]-OH)	− (>32 μg/mL)	–	–	–	− (>32 μg/mL)	–	+ (≤32 μg/mL)	− (>32 μg/mL)	–	> 300	–	–
CC[C@H](NC(=O)[C@@H](NC(=O)[C@@H](N)CCCCN)[C@@H](O)CN)C(=O)NCC(=O)N[C@H](CCCN)C(=O)N1CCC[C@H]1C(=O)N[C@@H](Cc1cnc[nH]1)C(=O)N[C@@H](CCCCN)C(=O)N/C(=C\CCNC(=N)N)C(=O)N[C@@H](CCCCN)C(=O)NCCCCN [28.1] (H-K[Dab(3S-OH)][Abu]G[dOrn]PHK[ΔZArg]K-{NH(CH2)4NH2})	− (>32 μg/mL)	–	–	–	− (>32 μg/mL)	–	++ (≤8 μg/mL)	++ (≤8 μg/mL)	–	< 30	–	–
CC[C@H](NC(=O)[C@@H](NC(=O)[C@@H](N)CCCCN)[C@@H](O)CN)C(=O)NCC(=O)N[C@H](CCCN)C(=O)N1CCC[C@H]1C(=O)N[C@@H](Cc1cnc[nH]1)C(=O)N[C@@H](CCCCN)C(=O)N/C(=C\CCNC(=N)N)C(=O)O [28.2] (H-K[Dab(3S-OH)][Abu]G[dOrn]PHK[ΔZArg]-OH)	− (>32 μg/mL)	–	–	–	− (>32 μg/mL)	–	+ (≤32 μg/mL)	− (>32 μg/mL)	–	> 300	–	–
CC(C)[C@H](NC(=O)[C@@H](NC(=O)[C@@H](N)CCCCN)[C@@H](O)CN)C(=O)NCC(=O)N[C@H](CCCN)C(=O)N1CCC[C@H]1C(=O)N[C@@H](Cc1cnc[nH]1)C(=O)N[C@@H](CCCCN)C(=O)N/C(=C\CCNC(=N)N)C(=O)N[C@@H](CCCCN)C(=O)NCCCCN [212.1] (H-K[Dab(3S-OH)]VG[dOrn]PHK[ΔZArg]K-{NH(CH2)4NH2})	− (>32 μg/mL)	–	–	–	− (>32 μg/mL)	–	++ (≤8 μg/mL)	++ (≤8 μg/mL)	–	< 30	–	–
CC(C)[C@H](NC(=O)[C@@H](NC(=O)[C@@H](N)CCCCN)[C@@H](O)CN)C(=O)NCC(=O)N[C@H](CCCN)C(=O)N1CCC[C@H]1C(=O)N[C@@H](Cc1cnc[nH]1)C(=O)N[C@@H](CCCCN)C(=O)N/C(=C\CCNC(=N)N)C(=O)O [212.2] (H-K[Dab(3S-OH)]VG[dOrn]PHK[ΔZArg]-OH)	− (>32 μg/mL)	–	–	–	− (>32 μg/mL)	–	+ (≤32 μg/mL)	− (>32 μg/mL)	–	> 300	–	–
N=C(N)NCC/C=C(\NC(=O)[C@H](CCCCN)NC(=O)[C@H](Cc1cnc[nH]1)NC(=O)[C@@H]1CCCN1C(=O)[C@@H](CCCN)NC(=O)CNC(=O)[C@@H](NC(=O)[C@@H](NC(=O)[C@@H](N)CCCCN)[C@@H](O)CN)[C@H](CN)OC(=O)C(F)(F)F)C(=O)N[C@@H](CCCCN)C(=O)NCCCCN [224.1] (H-K[Dab(3S-OH)][X3]G[dOrn]PHK[ΔZArg]K-{NH(CH2)4NH2})	− (>32 μg/mL)	–	–	–	+ (≤32 μg/mL)	–	++ (≤8 μg/mL)	++ (≤8 μg/mL)	–	< 30	–	–

— US10626144B2, “Peptide derivatives and uses thereof” (Nosopharm, priority 2014, dated 2020)
